Tested on: HeLa cells
Test: AAV2 FLAG-Luc transduction of HeLa cells (luciferase screen)
Format: cell-based, human
Conditions: for order of potency among anthracyclines: 0.6, 3 and 6 μg/mL; for increase in transduction efficiency: at the doses tested, MOI 100, 2 hours infection, harvest 48 hours
Source text: A. To screen for agents that enhance rAAV transduction, any number of cells can be used. A range of concentrations of the agent to be tested can be determined based on, for instance desirable profiles of the agent, desirable toxicity profiles of the agent and/or concentration of the agents employed in vivo. The usefulness of the cell type chosen for the screen can be confirmed by testing compounds, e.g., proteasome inhibitors such as LLnL and ZLL which are known to increase rAAV transduction. For example, a AAV2 FLAG-Luc vector was employed to transduce HeLa, ferret fibroblasts, IB3 and Huh (liver) cells in the presence or absence of the proteasome inhibitor MG132. MG132 was confirmed to enhance AAV transduction in all cell types tested: HeLa cell transduction was enhanced about 500-fold at 80 μM, and 200-fold at 40 μM, MG132; ferret fibroblast cell transduction was enhanced about 200-fold at 20 μM, and 17-fold at 4 μM, MG132; IB3-1 cell transduction was enhanced about 30 to 70-fold at 20 to 80 μM MG132; and Huh-7 cell transduction was enhanced about 15-fold at 20 to 80 μM MG132. There was no difference in rAAV transduction efficiency in HeLa cells when either DMSO or ETOH was used as a vehicle for MG132. B. HeLa cells were selected to screen for additional agents that enhance rAAV transduction, although any cell strain or line; or primary cells, may be employed. […] The range of concentrations of the agents to be tested were selected based on solubility profiles, toxicity profiles and/or concentrations previously employed in vivo.
HeLa cells were infected for 2 hours with an MOI of 100 rAAV in the presence of agents, e.g., ritonavir (Norvir) (1, 10 and 100 μM), cyclosporin A (2.5, 25 and 250 μg/ml), epoxomicin (1, 10 and 50 μM), alcacinomycin A (5, 50 or 500 μM), chymostatin (1, 10 and 100 μM), bestatin (1, 10 and 100 μM), doxorubicin (adriamycin) (0.1, 1 and 10 μM), camptothecin (camptosar) (1, 10 and 100 μM), eicosapentanoic acid (1, 10 and 100 μM), tannic acid (2, 20, 200 and 2000 μM), simvastatin, prodrug (2, 20 and 200 μM), cisplatin (0.2, 2 and 20 μg/mL), and chloroquine (4, 40 and 400 μM). Forty-eight hours after infection, cells were harvested for analysis. rAAV transduction was measured by removing the media from the cell cultures, adding 100 μL reporter lysis buffer (RLB) and freezing. The supernatant was thawed and transferred to microfuge tubes, freeze thawed an additional 2 times, clarified by centrifugation for 10 minutes and then analyzed for reporter gene expression on the lumometer. Protein was determined by Bradford analysis and results were expressed as relative light units per mg protein (RLU/mg).
Based on results with doxorubicin, a small number of FDA approved anthracyclines were tested for their relative in vitro and in vivo activities on AAV transduction. HeLa cells were infected with 100 ppc AAV2FLAG-Luc for 2 hours in the presence of different anthracyclines, e.g., doxorubicin, daunarubicin (Cerubidine), epirubicin (Ellence™), and idarubicin (Idamycin®), and cells harvested 48 hours later. The anthracyclines were pharmaceutical grade, and prepared according to the manufacturer's instructions. Prior to use, the agents were diluted in sterile water to an equal mass, e.g., 0.6 μg/mL, 3 μg/mL and 6 μg/mL. For example, 3 μg/mL idamycin increased luciferase expression by over 5000-fold while doxorubin increased luciferase expression by 58-fold. Generally, the potency was as follows: idarubicin>daunarubicin>epirubicin>doxorubicin.

SMILES: COc1cccc2c1C(=O)c1c(O)c3c(c(O)c1C2=O)C[C@@](O)(C(=O)CO)C[C@@H]3O[C@H]1C[C@H](N)[C@@H](O)[C@H](C)O1 [epirubicin]
- order of potency among anthracyclines: idarubicin>daunarubicin>epirubicin>doxorubicin

SMILES: N.N.[Cl][Pt][Cl] [cisplatin]
- increase in transduction efficiency: 16 fold

SMILES: O=C(OC[C@H]1O[C@@H](OC(=O)c2cc(O)c(O)c(OC(=O)c3cc(O)c(O)c(O)c3)c2)[C@H](OC(=O)c2cc(O)c(O)c(OC(=O)c3cc(O)c(O)c(O)c3)c2)[C@@H](OC(=O)c2cc(O)c(O)c(OC(=O)c3cc(O)c(O)c(O)c3)c2)[C@@H]1OC(=O)c1cc(O)c(O)c(OC(=O)c2cc(O)c(O)c(O)c2)c1)c1cc(O)c(O)c(OC(=O)c2cc(O)c(O)c(O)c2)c1 [tannic acid]
- increase in transduction efficiency: 17 fold

SMILES: CC[C@H](C)[C@H](NC(=O)[C@H]([C@@H](C)CC)N(C)C(C)=O)C(=O)N[C@H](C(=O)N[C@@H](CC(C)C)C(=O)[C@@]1(C)CO1)[C@@H](C)O [epoxomicin]
- increase in transduction efficiency: ≤ 120 fold
- dose dependence of transduction (dose ranges tested): dose-dependent increase in transduction

SMILES: CC[C@H](C)C(=O)O[C@H]1C[C@@H](C)C=C2C=C[C@H](C)[C@H](CC[C@@H]3C[C@@H](O)CC(=O)O3)[C@H]21 [lovastatin]
- result in cell line screening: negative results

SMILES: CCC(C)(C)C(=O)O[C@H]1C[C@@H](C)C=C2C=C[C@H](C)[C@H](CC[C@@H]3C[C@@H](O)CC(=O)O3)[C@H]21 [simvastatin]
- increase in transduction efficiency: 4 fold

SMILES: COc1cccc2c1C(=O)c1c(O)c3c(c(O)c1C2=O)C[C@@](O)(C(C)=O)C[C@@H]3O[C@H]1C[C@H](N)[C@H](O)[C@H](C)O1 [daunarubicin]
- order of potency among anthracyclines: idarubicin>daunarubicin>epirubicin>doxorubicin

From patent US20080206198A1, “Compounds and methods for pharmico-gene therapy of epithelial sodium channel associated disorders” (priority 2003, published 2008)
